From patent publication US4459290A, “C-23-Modified derivatives of OMT, pharmaceutical compositions and method of use” (priority 1982, dated 1984)
In brackets after ≈: the same amount, converted by molar mass. Structures can show the parent of a compound that is named as a salt. Where two headings read alike, the source gives them in different places.

Columns and labels:
Escherichia coli EC14 = assay: MIC, standard agar-dilution assay (Table V); format: cell-based; conditions: Escherichia coli, EC14
Description: (§1) Especially noteworthy is the improved activity against gram-negative bacteria for several derivatives when compared to the activity of OMT. […] The MIC's in Tables V and VI were determined by standard agar-dilution assays. The MIC's in Table VII were obtained using a conventional broth-dilution microtiter test.

Escherichia coli N10 = assay: MIC, standard agar-dilution assay (Table V); format: cell-based; conditions: Escherichia coli, N10
Description: as §1

[1] = tested on: Klebsiella pneumoniae KAE; assay: MIC, standard agar-dilution assay (Table V); format: cell-based; conditions: Klebsiella pneumoniae
Description: as §1

[2] = tested on: Klebsiella pneumoniae X26; assay: MIC, standard agar-dilution assay (Table V); format: cell-based; conditions: Klebsiella pneumoniae
Description: as §1

Shigella sonnei N9 = assay: MIC, standard agar-dilution assay (Table V); format: cell-based
Description: as §1

[3] = tested on: Staphylococcus aureus S13E; assay: MIC, standard agar-dilution assay (Table V); format: cell-based; conditions: Staphylococcus aureus, S13E
Description: as §1

[4] = tested on: Staphylococcus aureus V41; assay: MIC, standard agar-dilution assay (Table V); format: cell-based; conditions: Staphylococcus aureus, V41
Description: as §1

[5] = tested on: Staphylococcus aureus X1.1; assay: MIC, standard agar-dilution assay (Table V); format: cell-based; conditions: Staphylococcus aureus, X1.1
Description: as §1

[6] = tested on: Staphylococcus aureus X400; assay: MIC, standard agar-dilution assay (Table V); format: cell-based; conditions: Staphylococcus aureus, X400
Description: as §1

[7] = tested on: Staphylococcus epidermidis EPI1; assay: MIC, standard agar-dilution assay (Table V); format: cell-based; conditions: Staphylococcus epidermidis
Description: as §1

[8] = tested on: Staphylococcus epidermidis EPI2; assay: MIC, standard agar-dilution assay (Table V); format: cell-based; conditions: Staphylococcus epidermidis, EPI2
Description: as §1

Streptococcus Group 9960 = assay: MIC, standard agar-dilution assay (Table V); format: cell-based; conditions: GROUP9960
Description: as §1

[9] = tested on: Streptococcus Group D X66; assay: MIC, standard agar-dilution assay (Table V); format: cell-based
Description: as §1

Escherichia coli TEM = assay: MIC, standard agar-dilution assay (Table V); format: cell-based; conditions: Escherichia coli
Description: (§2) The MIC's in Tables V and VI were determined by standard agar-dilution assays. The MIC's in Table VII were obtained using a conventional broth-dilution microtiter test.

[10] = tested on: Haemophilus influenzae Holt; assay: MIC, standard agar-dilution assay (Table V); format: cell-based; conditions: Haemophilus influenzae
Description: as §2

[11] = tested on: Haemophilus influenzae R252; assay: MIC, standard agar-dilution assay (Table V); format: cell-based; conditions: Haemophilus influenzae
Description: as §2

[12] = tested on: Streptococcus pyogenes C203; assay: MIC, standard agar-dilution assay (Table V); format: cell-based; conditions: Streptococcus pyogenes
Description: as §2

[13] = tested on: Streptococcus pneumoniae Park I; assay: microbe, parasite or virus in culture; format: cell-based; conditions: Streptococcus pneumoniae
Description: as §1

Mycoplasma gallisepticum = assay: MIC, broth-dilution microtiter test (Table VII); format: cell-based; conditions: Mycoplasmoides gallisepticum
Description: as §1

Mycoplasma hyorhinis = assay: MIC, broth-dilution microtiter test (Table VII); format: cell-based
Description: as §1

Mycoplasma synoviae = assay: MIC, broth-dilution microtiter test (Table VII); format: cell-based; conditions: Mycoplasmopsis synoviae
Description: as §1

[14] = tested on: Pasteurella hemolytica 22C; assay: MIC, broth-dilution microtiter test (Table VII); format: cell-based; conditions: Pasteurella, P. hemolytica 22C, read-out: MIC
Description: as §1

[15] = tested on: Pasteurella hemolytica 23C; assay: MIC, broth-dilution microtiter test (Table VII); format: cell-based; conditions: Pasteurella, P. hemolytica 23C, read-out: MIC
Description: as §1

[16] = tested on: Pasteurella hemolytica 41D; assay: MIC, broth-dilution microtiter test (Table VII); format: cell-based; conditions: Pasteurella, P. hemolytica 41D, read-out: MIC
Description: as §1

[17] = tested on: Pasteurella multocida 17E; assay: MIC, broth-dilution microtiter test (Table VII); format: cell-based; conditions: Pasteurella multocida, 17E
Description: as §1

[18] = tested on: Pasteurella multocida 22A; assay: MIC, broth-dilution microtiter test (Table VII); format: cell-based; conditions: Pasteurella multocida; P. multocida 22A; broth-dilution microtiter; read-out: MIC
Description: as §1

[19] = tested on: Pasteurella multocida 40G; assay: MIC, broth-dilution microtiter test (Table VII); format: cell-based; conditions: Pasteurella multocida; P. multocida 40G; broth-dilution microtiter; read-out: MIC
Description: as §1

[20] = tested on: Pasteurella multocida 60A; assay: MIC, broth-dilution microtiter test (Table VII); format: cell-based; conditions: Pasteurella multocida, 60A
Description: as §1

[21] = tested on: Pasteurella multocida 68C; assay: MIC, broth-dilution microtiter test (Table VII); format: cell-based; conditions: Pasteurella multocida
Description: as §1

Staphylococcus aureus = assay: MIC, broth-dilution microtiter test (Table VII); format: cell-based; conditions: Staphylococcus aureus
Description: as §1

Streptococcus sp. 80 = assay: MIC, broth-dilution microtiter test (Table VII); format: cell-based; conditions: Streptococcus sp. 80; broth-dilution microtiter; read-out: MIC
Description: as §1

[22] = tested on: Streptococcus pyogenes C203; assay: ED50 in mice experimentally infected with S. pyogenes C203 (Table VIII); format: in vivo
Description: The C-23 modified derivatives of OMT of this invention have shown in vivo antimicrobial activity against experimental infections. When two doses of test compound were administered to mice experimentally infected with a gram-positive bacterium, S. pyogenes C203, the activity observed was measured as an ED50 value [effective dose in mg/kg to protect 50% of the test animals: see Warren Wick, et al., J. Bacteriol. 81, 233-235 (1961)].

Pasteurella multocida = assay: Protection of one-day-old chicks against Pasteurella multocida infection (Table IX); format: in vivo; conditions: subcutaneous 30 mg/kg × 2, 1 and 4 hours post-challenge
Description: The C-23 modified derivatives of OMT have also shown in vivo antibacterial activity against infections induced by gram-negative bacteria. Table IX summarizes the results of tests in which illustrative compounds were evaluated against Pasteurella infections in one-day-old chicks. The compounds were administered by subcutaneous injection at a dosage of 30 mg/kg, 1 and 4 hours post-challenge of the chicks with Pasteurella multocida (0.1 ml of a twenty-hour tryptose broth culture of an avian P. multocida given subcutaneously). In the tests, all ten non-medicated infected chicks died within 24 hours of Pasteurella challenge.

[23] = C203, sc, mice, subcutaneous, doses given 1 and 4 hours postinfection, read-out: ED50, Subcutaneous

SMILES | MIC (Escherichia coli EC14) [µg/mL] | MIC (Escherichia coli N10) [µg/mL] | MIC [1] [µg/mL] | MIC (Shigella sonnei N9) [µg/mL] | MIC [3] [µg/mL] | MIC [4] [µg/mL] | MIC [5] [µg/mL] | MIC [6] [µg/mL] | MIC [8] [µg/mL] | MIC (Streptococcus Group 9960) [µg/mL] | MIC [9] [µg/mL] | MIC (Mycoplasma gallisepticum) [µg/mL] | MIC [14] [µg/mL] | MIC [15] [µg/mL] | MIC [16] [µg/mL] | MIC [17] [µg/mL] | MIC [18] [µg/mL] | MIC [19] [µg/mL] | MIC [20] [µg/mL] | MIC (Streptococcus sp. 80) [µg/mL] | other results
CCC1OC(=O)CC(O)C(C)C(OC2OC(C)C(O)C(N(C)C)C2O)C(CC=O)CC(C)C(=O)C=CC(C)=CC1CNC(=O)[C@H](N)c1ccccc1 (single isomer, unassigned) [Compound 12, 23-Deoxy-23-N-(D-(-)-phenylglycyl)amino-OMT bis(trifluoroacetate) salt] | > 128 | > 128 | > 128 | > 128 | 8 | 8 | 4 | 8 | 8 | 8 | 8 | 3.12 | 50 | 50 | 50 | 12.5 | 25 | 25 | 12.5 | 6.25 | MIC ([2]; K. pneumoniae X26, agar dilution, read-out: MIC): 16 µg/mL; MIC ([7]; S. epidermidis EPI1, agar dilution, read-out: MIC): 4 µg/mL; MIC (Escherichia coli TEM): > 128 µg/mL; MIC ([10]; H. influenzae Holt, ampicillin-sensitive strain, agar dilution, read-out: MIC): 16 µg/mL; MIC ([11]; H. influenzae R252, ampicillin-resistant strain, agar dilution, read-out: MIC): 16 µg/mL; MIC ([12]; S. pyogenes C203, agar dilution, read-out: MIC): 0.5 µg/mL; MIC ([13]; S. pneumoniae Park I, agar dilution, read-out: MIC): 0.5 µg/mL; MIC (Mycoplasma hyorhinis; M. hyorhinis, broth-dilution microtiter, read-out: MIC): > 50 µg/mL; MIC (Mycoplasma synoviae): 3.12 µg/mL; MIC ([21]; P. multocida 68C, broth-dilution microtiter, read-out: MIC): 25 µg/mL; MIC (Staphylococcus aureus; S. aureus, broth-dilution microtiter, read-out: MIC): 6.25 µg/mL; ED50 ([22]; C203, po, read-out: ED50, Oral): > 100 mg/kg; ED50 [22, 23]: 6.2 mg/kg; Number of deaths/number treated (Pasteurella multocida): 9/10
CCC1OC(=O)CC(O)C(C)C(OC2OC(C)C(O)C(N(C)C)C2O)C(CC=O)CC(C)C(=O)C=CC(C)=CC1CNC(=O)Cc1ccccc1 (centres unmarked) [Compound 10, 23-Deoxy-23-N-(phenylacetyl)amino-OMT] | > 128 | > 128 | > 128 | > 128 | 0.5 (≈ 0.699 µM) | 1 (≈ 1.4 µM) | 0.5 (≈ 0.699 µM) | 1 (≈ 1.4 µM) | 1 (≈ 1.4 µM) | 0.5 (≈ 0.699 µM) | 0.5 (≈ 0.699 µM) | 1.56 (≈ 2.18 µM) | 12.5 (≈ 17.5 µM) | 12.5 (≈ 17.5 µM) | 25 (≈ 35 µM) | 3.12 (≈ 4.36 µM) | 25 (≈ 35 µM) | 12.5 (≈ 17.5 µM) | 3.12 (≈ 4.36 µM) | 0.19 (≈ 0.266 µM) | MIC ([2]; X26): 8 µg/mL (≈ 11.2 µM); MIC ([7]; EPI1): 0.25 µg/mL (≈ 0.35 µM); MIC (Escherichia coli TEM; E. coli TEM, agar dilution, read-out: MIC): 32 µg/mL (≈ 44.8 µM); MIC [10]: 2 µg/mL (≈ 2.8 µM); MIC ([11]; R252): 2 µg/mL (≈ 2.8 µM); MIC ([12]; C203): 0.25 µg/mL (≈ 0.35 µM); MIC [13]: 0.25 µg/mL (≈ 0.35 µM); MIC (Mycoplasma hyorhinis): 50 µg/mL (≈ 69.9 µM); MIC (Mycoplasma synoviae; M. synoviae, broth-dilution microtiter, read-out: MIC): 0.19 µg/mL (≈ 0.266 µM); MIC ([21]; 68C): 1.56 µg/mL (≈ 2.18 µM); MIC (Staphylococcus aureus): 0.78 µg/mL (≈ 1.09 µM); ED50 ([22]; C203, po, read-out: ED50, Oral): > 100 mg/kg; ED50 [22, 23]: 5.8 mg/kg; Number of deaths/number treated (Pasteurella multocida): 3/10
